Measured values published in PubChem BioAssay AID1259332 (Broad Institute, 2017).
The source made the active and inactive calls. No rule for the calls is given here.

tested on: B cell line, CD40 signaling inhibition reporter; assay: CD40 pathway inhibition in B cells – B cell lineage, dose response (AID 1259332);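 also: cells stimulated with CD40 ligand tCD40L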

Structure (SMILES)	AC50
CS(=O)(=O)c1ccc(C(=O)OCC(=O)NC(=O)C2CCCCC2)cc1[N+](=O)[O-]	> 20 µM (inactive)
O=C(COC(=O)c1ccccc1)c1ccc2c(c1)OCCO2	0.926 µM
C[C@@H]1CN([C@H](C)CO)C(=O)c2cc(NC(=O)Nc3cccc4ccccc34)ccc2O[C@@H](C)CCCCO[C@H]1CN(C)Cc1ccc(C(F)(F)F)cc1	1.91 µM
CC1=NNC(=O)C1Br (centres undefined)	7.86 µM
O=C1NC2c3c(I)sc(I)c3C(=O)C2O1 (centres undefined)	3.2 µM
Clc1ccc(CSC(Cn2ccnc2)c2ccc(Cl)cc2Cl)cc1 (centres undefined)	> 20 µM (inactive)
C[C@H]1O[C@@H](O[C@H]2[C@@H](O)C[C@H](O[C@H]3[C@@H](O)C[C@H](O[C@H]4CC[C@]5(C)C6C[C@@H](O)[C@]7(C)[C@@H](C8=CC(=O)OC8)CC[C@]7(O)C6CC[C@@H]5C4)O[C@@H]3C)O[C@@H]2C)C[C@H](O)[C@@H]1O (some centres undefined)	2.59 µM
Cn1cnc(CCNC(=O)C[C@@H]2CC[C@@H]3[C@H](COC[C@@H](O)CN3C(=O)Nc3ccc(C(F)(F)F)cc3)O2)c1	8.76 µM
C[C@H](CO)N1C[C@H](C)[C@H](CN(C)C(=O)Nc2cccc(Cl)c2Cl)OCc2ccccc2-c2c(n(C)c3ccccc23)C1=O	5.24 µM
Cc1ccc(N2CC(C(=O)Nc3nccs3)CC2=O)cc1Cl (centres undefined)	8.73 µM
CC(C)c1ccc(NC(=O)Nc2nc(C(N)COCc3ccccc3)cs2)cc1 (centres undefined)	2.62 µM
CCS(=O)(=O)N1[C@H](CO)[C@@H](c2ccc(C#Cc3ccccc3F)cc2)[C@@H]1C#N	4.12 µM
CCC(=O)NC(c1ccccc1OC)c1ccc2cccnc2c1O (centres undefined)	8.63 µM
C[C@H]1CN([C@@H](C)CO)C(=O)c2ccccc2-c2ccccc2CO[C@H]1CN(C)C(=O)[C@@H](Cc1ccccc1)N(C)C	> 20 µM (inactive)
C[C@@H]1O[C@@H](O[C@H]2C[C@@H](O)[C@]3(CO)C4C(CC[C@]3(O)C2)[C@@]2(O)CC[C@H](C3=CC(=O)OC3)[C@@]2(C)C[C@H]4O)[C@H](O)[C@H](O)[C@H]1O (some centres undefined)	0.294 µM
CCC(=O)O[C@]1(C(=O)CCl)[C@@H](C)C[C@H]2[C@@H]3CCC4=CC(=O)C=C[C@]4(C)[C@@]3(F)[C@@H](O)C[C@@]21C	> 20 µM (inactive)
C=CC[n+]1c(/C=C2\C=Cc3cc(C)ccc3N2CC)ccc2ccccc21	2.7 µM
O=C1c2ccccc2C(=O)C1c1ccc2ccccc2n1	6.15 µM
COc1ccc(S(=O)(=O)Nc2ccc3c(c2)C(=O)N([C@@H](C)CO)C[C@@H](C)[C@@H](CN(C)Cc2ccc(C(F)(F)F)cc2)OCCCC[C@H](C)O3)cc1	> 7 µM (inactive)
C[C@H](CO)N1C[C@H](C)[C@@H](CN(C)Cc2cccc(C(F)(F)F)c2)OCc2ccccc2-c2c(n(C)c3ccccc23)C1=O	> 20 µM (inactive)
COc1ccc(S(=O)(=O)Nc2ccc3c(c2)C(=O)N([C@H](C)CO)C[C@H](C)[C@@H](CN(C)Cc2ccc(C(F)(F)F)cc2)OCCCC[C@@H](C)O3)cc1	11.4 µM

Structure (SMILES)	AC50
C[C@@H]1CN([C@@H](C)CO)C(=O)c2c(c3ccccc3n2C)-c2ccccc2CO[C@@H]1CN(C)C(=O)Nc1ccccc1C(F)(F)F	9.94 µM
Cc1ccc(S(=O)(=O)CCC(=O)N(CCCN2CCOCC2)c2nc3ccccc3s2)cc1	8.01 µM
NC(c1ccccc1)c1csc(NC(=O)Nc2cccc(C(F)(F)F)c2)n1 (centres undefined)	6.03 µM
CC1=C(C#N)c2nc(N)c(C#N)c(C)c2/C1=C\c1ccccc1	4.41 µM
O=C1C=CC(=O)c2c(O)c(N3CCN(CCOCCO)CC3)c(Br)c(O)c21	1.91 µM
CN(C)c1ccc(NC(=O)c2cnsn2)cc1	6.15 µM
CC(NCC(O)COCCC12CC3CC(CC(C3)C1)C2)c1ccccc1 (centres undefined)	4.88 µM
COc1ccc(S(=O)(=O)N(C)C[C@H]2Oc3ccc(NC(=O)Nc4ccc(C(F)(F)F)cc4)cc3C(=O)N([C@H](C)CO)C[C@H]2C)cc1	10.5 µM
Cn1c(CO)nc2cc(N)ccc21	> 20 µM (inactive)
C[C@@H]1CN([C@H](C)CO)C(=O)c2c(c3ccccc3n2C)-c2ccccc2CO[C@@H]1CN(C)C(=O)c1cc(Cl)cc(Cl)c1	8.65 µM
COc1ccccc1NC(c1cccnc1)c1ccc2cccnc2c1O (centres undefined)	8.25 µM
Cc1[nH]c2ccccc2c1C(c1ccccn1)N1CCC(C(N)=O)CC1 (centres undefined)	9.34 µM
CC(C)[C@H](N)C(=O)N[C@H]1CCC2C3CC=C4C[C@@H](O)CC[C@]4(C)C3CC[C@@]21C (some centres undefined)	2.97 µM
C[C@@H]1CCCCO[C@H](CN(C)CC2CCCCC2)[C@H](C)CN([C@@H](C)CO)C(=O)c2cc(NC(=O)Nc3ccc(C(F)(F)F)cc3)ccc2O1	8.6 µM
C[C@@H]1CN([C@@H](C)CO)C(=O)c2c(c3ccccc3n2C)-c2ccccc2CO[C@H]1CN(C)Cc1cccc(C(=O)Nc2ccccc2N)c1	> 20 µM (inactive)
CC(C)=CCc1c2c(c3occ(-c4ccc(O)c(O)c4)c(=O)c3c1O)C=CC(C)(C)O2	4.31 µM
COc1cccc(S(=O)(=O)N(C)C[C@@H]2OCc3ccccc3-c3c(n(C)c4ccccc34)C(=O)N([C@H](C)CO)C[C@H]2C)c1	> 20 µM (inactive)
Cc1cnc(NC(=O)c2ccc(OCC3CCCO3)cc2)s1 (centres undefined)	3.03 µM
CC(C)CCCCCCCCCCCCC(=O)NCC(=O)NC1C(O)C(O)C(Nc2ncnc3nc[nH]c23)OC1C(O)CO (centres undefined)	0.0128 µM
CC1CC(C)C(=NNC(N)=O)C(C(O)CC2CCC(=O)NC2=O)C1 (centres undefined)	0.241 µM
C[C@H]1CN([C@@H](C)CO)C(=O)c2c(c3ccccc3n2C)-c2ccccc2CO[C@H]1CN(C)C(=O)Nc1cccc(C(F)(F)F)c1	8.34 µM

Structure (SMILES)	AC50
COc1ccc2c3c([nH]c2c1)[C@H](CO)N(C(=O)Nc1ccc(F)cc1)CC31CN(Cc2cc(F)ccc2F)C1	> 20 µM (inactive)
C=C1C(=O)OC2CC1C(O)CC(C)=CCCC(C)=CC(O)CC2C (centres undefined)	6 µM
CCN(CC)C(=O)c1ccc(NC(=O)Nc2ccccc2F)cc1	2.35 µM
CC1CNCCN1S(=O)(=O)c1cccc2cnccc12 (centres undefined)	9.01 µM
COC(=O)C1=C(C(=O)OC)C(C(=O)OC)C(C(=O)OC)C(C(=O)OC)(C(=O)OC)C(C(=O)OC)=C1C(=O)OC (centres undefined)	3.44 µM
O=C1NC2C(=CC(O)C(O)C2O)c2cc3c(c(O)c21)OCO3 (centres undefined)	0.0711 µM
N#C[C@@H]1[C@H](c2ccc(C#Cc3ccc(F)cc3)cc2)[C@@H](CO)N1C(=O)C1CCC1	4.71 µM
C[C@@H]1CN([C@@H](C)CO)C(=O)Cc2cc(NS(=O)(=O)c3ccc(F)cc3)ccc2O[C@H]1CN(C)Cc1ccc(C(F)(F)F)cc1	3.75 µM
C[C@H]1CN([C@@H](C)CO)C(=O)c2c(c3ccccc3n2C)-c2ccccc2CO[C@@H]1CN(C)Cc1cccc(C(F)(F)F)c1	2.17 µM
COC(=O)c1nn(-c2ccc(-c3ccccc3)cc2)cc1O	8.42 µM
COc1cccc(C#Cc2ccc([C@H]3[C@@H](C#N)N(C(=O)c4ccccn4)[C@@H]3CO)cc2)c1	5.81 µM
COc1cc(C(=O)CCN2CCC(c3ccccc3)C2)cc(OC)c1OC (centres undefined)	5.51 µM
COCC(=O)N1[C@H](C#N)[C@H](c2ccc(C#Cc3ccccc3F)cc2)[C@H]1CO	0.856 µM
CC(C)[C@H](CO)Nc1nc(Nc2cccc(Cl)c2)c2ncn(C(C)C)c2n1	4.67 µM
CN(C)C(=S)SSC(=S)N(C)C	0.152 µM
C[C@@H]1CN([C@H](C)CO)C(=O)c2cc(NS(=O)(=O)c3cccs3)ccc2O[C@@H](C)CCCCO[C@H]1CN(C)Cc1ccc(Cl)c(Cl)c1	> 20 µM (inactive)
N#C[C@@H]1[C@H](c2ccc(C#CC3CCCCC3)cc2)[C@H](CO)N1C(=O)Nc1ccc(F)cc1	> 20 µM (inactive)
O=C(C1CCOCC1)N1CC(=O)N2[C@H](C1)[C@@H](c1ccc(C#CCc3ccccc3)cc1)[C@@H]2CO	5.95 µM
C[C@@H]1CN([C@@H](C)CO)C(=O)c2c(c3ccccc3n2C)-c2ccccc2CO[C@H]1CN(C)Cc1ccccc1	8.22 µM
COc1ccc(/C=C2/CCC(CN3CCOCC3)C2=O)cc1 (centres undefined)	3.67 µM
CC[C@@]1(O)C(=O)OCc2c1cc1n(c2=O)Cc2cc3ccccc3nc2-1	0.961 µM

Structure (SMILES)	AC50
COc1ccc(-c2ccc([C@H]3[C@@H](C#N)N(C(=O)c4cccc(F)c4)[C@H]3CO)cc2)cc1	> 22 µM (inactive)
Cc1cccc(-c2ccc(C3[C@@H]4CN(C(=O)Nc5ccc(C(F)(F)F)cc5)C[C@H]3N4)cc2)c1 (some centres undefined)	7.37 µM
CC(C)CC#Cc1ccc([C@@H]2[C@H]3CN(C(=O)Nc4ccccc4)CCCCN3[C@H]2CO)cc1	9.52 µM
N#C[C@@H]1[C@@H](c2ccc(C#CC3CCCCC3)cc2)[C@H](CO)N1C(=O)Nc1ccc(F)cc1	6.51 µM
O=C(C1CCOCC1)N1CC(=O)N2[C@H](C1)[C@H](c1ccc(C#CCc3ccccc3)cc1)[C@@H]2CO	1.86 µM
C[C@@H]1CN([C@@H](C)CO)C(=O)c2ccccc2-c2ccccc2CO[C@@H]1CN(C)Cc1ccc(Oc2ccccc2)cc1	> 20 µM (inactive)
O=C1NC2C(O)C(O)C(O)C(O)C2c2cc3c(c(O)c21)OCO3 (centres undefined)	0.155 µM
O=C(c1nnsc1S(=O)(=O)c1ccc(Cl)cc1)N1CCOCC1	2.31 µM
CC1(C)C(=O)C=C[C@@]2(C)C1C[C@@H](O)[C@]1(C)C2CC[C@@]2(C)[C@H](c3ccoc3)OC(=O)[C@H]3O[C@]321 (some centres undefined)	7.18 µM
NC(=NCCCCCCN=C(N)/N=C(\N)Nc1ccc(Cl)cc1)/N=C(\N)Nc1ccc(Cl)cc1	> 20 µM (inactive)
CC(=O)OCC(=O)C1(O)CCC2C3CCC4=CC(=O)CCC4(C)C3(Cl)C(O)CC21C (centres undefined)	> 20 µM (inactive)
C[C@H](CO)N1C[C@H](C)[C@H](CN(C)C(=O)C2CCOCC2)Oc2ncc(C#CCc3ccccc3)cc2C1=O	9.51 µM
Cc1noc(C)c1S(=O)(=O)Nc1ccc2c(c1)CC(=O)N([C@@H](C)CO)C[C@@H](C)[C@@H](CN(C)Cc1ccc(Oc3ccccc3)cc1)O2	7.39 µM
O=C(Cc1ccccc1)N1CC[C@@H]2[C@H]1c1cc(C#Cc3cccc(F)c3)ccc1N[C@@H]2CO	5.19 µM
Oc1c(Cl)cc(Cl)cc1Sc1cc(Cl)cc(Cl)c1O	7.67 µM
O=S(=O)(/C(=C\c1ccc(C(F)(F)F)cc1)c1nc2ccccc2[nH]1)c1ccccc1	2.26 µM
CC(=O)Nc1ccc(Sc2ccc([N+](=O)[O-])o2)cc1	1.99 µM
N#C[C@@H]1[C@@H](c2ccccc2-c2ccc(F)cc2)[C@H](CO)N1C(=O)NC1CCCCC1	> 22 µM (inactive)
CNc1c2cccc(C)c2nc2c(C(=O)NCCN(C)C)cccc12	0.266 µM
CC(C)NC(=O)N1Cc2cc(C(=O)NC3Cc4ccccc4C3)nc(-c3cccc(-c4cccnc4)c3)c2[C@@H]1CCO	10.6 µM
CCC(C)(O)C(=O)OC1C(=O)OC2CC3C(C)=CC(=O)C(O)C3(C)C3C4(O)OCC23C1C(C)C4O (centres undefined)	0.0299 µM
